From patent publication US20170210723A1, “MOLECULES HAVING PESTICIDAL UTILITY, AND INTERMEDIATES, COMPOSITIONS, AND PROCESSES, RELATED THERETO” (priority 2016, published 2017)

Experiments:
Type in all cases: in vivo
[1] = tested on: Yellow Fever Mosquito (Aedes aegypti); assay: Bioassays on Yellow Fever Mosquito larvae, 96-well plate; settings: from 4000 ppm DMSO master plate, about 1 day-old larvae, 3 days
Description: Master plates containing 400 μg of a molecule dissolved in 100 μL of dimethyl sulfoxide (DMSO) (equivalent to a 4000 ppm solution) are used. A master plate of assembled molecules contains 15 μL per well. To this plate, 135 μL of a 90:10 water:acetone mixture is added to each well. A robot (Biomek® NXP Laboratory Automation Workstation) is programmed to dispense 15 μL aspirations from the master plate into an empty 96-well shallow plate (“daughter” plate). There are 6 reps (“daughter” plates) created per master. The created daughter plates are then immediately infested with YFM larvae.
The day before plates are to be treated, mosquito eggs are placed in Millipore water containing liver powder to begin hatching (4 g. into 400 mL). After the daughter plates are created using the robot, they are infested with 220 μL of the liver powder/larval mosquito mixture (about 1 day-old larvae). After plates are infested with mosquito larvae, a non-evaporative lid is used to cover the plate to reduce drying. Plates are held at room temperature for 3 days prior to grading. After 3 days, each well is observed and scored based on mortality. The results are indicated in the table entitled “Table ABC: Biological Results” (See Table Section). AGRICULTURALLY ACCEPTABLE ACID ADDITION SALTS, SALT DERIVATIVES, SOLVATES, ESTER DERIVATIVES, POLYMORPHS, ISOTOPES, AND RADIONUCLIDES

[2] = tested on: Cabbage Looper (Trichoplusia ni); assay: Bioassays on CL, 128-well diet tray assay; settings: for mortality at 50 µg/cm2: 168 h, read-out: CL % Control (or Mortality) rating
Summary of the method: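 Second-instar larvae (1–5 per well) were fed diet surface-treated with 50 μg/cm^2 compound, eight wells each. After five to seven days at 25° C. under a 14:10 photoperiod, mortality was scored per well and the eight wells averaged.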

[3] = tested on: Beet Armyworm (Spodoptera exigua); assay: Bioassays on BAW, 128-well diet tray assay; settings: for mortality at 50 µg/cm2: 168 h, read-out: BAW % Control (or Mortality) rating
[4] = Trichoplusia ni, 50 μg/cm^2 on artificial diet, second instar larvae, five to seven days
[5] = Spodoptera exigua, 50 μg/cm^2 on artificial diet, second instar larvae, five to seven days
[6] = 50 μg/cm^2 on artificial diet, second instar larvae, five to seven days

SMILES	YFM % Control (or Mortality) rating [1]	mortality at 50 µg/cm2 [2, 4]	mortality at 50 µg/cm2 [3, 5]	further results
O=C(NCCSCC(F)(F)F)c1ccc(/C=C/C(c2cc(Cl)c(Cl)c(Cl)c2)C(F)(F)F)cc1Br (stereo not drawn) [F1, (E)-2-bromo-4-(4,4,4-trifluoro-3-(3,4,5-trichlorophenyl)but-1-en-1-yl)-N-(2-((2,2,2-trifluoroethyl)thio)ethyl)benzamide]	A (80-100)	50 to 100%	50 to 100%	
O=C(NCC[S+]([O-])Cc1ccccc1)c1ccc(/C=C/C(c2cc(Cl)c(Cl)c(Cl)c2)C(F)(F)F)cc1Br (stereo not drawn) [F2, (E)-N-(2-(Benzylsulfinyl)ethyl)-2-bromo-4-(4,4,4-trifluoro-3-(3,4,5-trichlorophenyl)but-1-en-1-yl)benzamide]	A (80-100)	50 to 100%	50 to 100%	
O=C(NCC[S+]([O-])CC(F)(F)F)c1ccc(/C=C/C(c2cc(Cl)c(Cl)c(Cl)c2)C(F)(F)F)cc1Br (stereo not drawn) [F3, (E)-2-bromo-4-(4,4,4-trifluoro-3-(3,4,5-trichlorophenyl)but-1-en-1-yl)-N-(2-((2,2,2-trifluoroethyl)sulfinyl)ethyl)benzamide]	B (More than 0-Less than 80)	50 to 100%	50 to 100%	
CC[C@H](CSCCC(F)(F)F)NC(=O)c1ccc(/C=C/C(c2cc(Cl)c(Cl)c(Cl)c2)C(F)(F)F)cc1C(F)(F)F (stereo partly drawn) [F11, 4-((E)-4,4,4-trifluoro-3-(3,4,5-trichlorophenyl)but-1-en-1-yl)-2-(trifluoromethyl)-N—((R)-1-((3,3,3-trifluoropropyl)thio)butan-2-yl)benzamide]	B (More than 0-Less than 80)	50 to 100%	50 to 100%	
CC[C@H](CSCC(F)(F)F)NC(=O)c1ccc(/C=C/C(c2cc(Cl)c(Cl)c(Cl)c2)C(F)(F)F)cc1C(F)(F)F (stereo partly drawn) [F12, 4-((E)-4,4,4-Trifluoro-3-(3,4,5-trichlorophenyl)but-1-en-1-yl)-N—((R)-1-((2,2,2-trifluoroethyl)thio)butan-2-yl)-2-(trifluoromethyl)benzamide]	A (80-100)	50 to 100%	50 to 100%	
CC[C@H](CSCC1CC1(F)F)NC(=O)c1ccc(/C=C/C(c2cc(Cl)c(Cl)c(Cl)c2)C(F)(F)F)cc1C(F)(F)F (stereo partly drawn) [F13, N-((2R)-1-(((2,2-Difluorocyclopropyl)methyl)thio)butan-2-yl)-4-((E)-4,4,4-trifluoro-3-(3,4,5-trichlorophenyl)but-1-en-1-yl)-2-(trifluoromethyl)benzamide]	A (80-100)	50 to 100%	50 to 100%	
CC(C)[C@H](CSCC(F)(F)F)NC(=O)c1ccc(/C=C/C(c2cc(Cl)c(Cl)c(Cl)c2)C(F)(F)F)cc1C(F)(F)F (stereo partly drawn) [F14, N—((R)-3-Methyl-1-((2,2,2-trifluoroethyl)thio)butan-2-yl)-4-((E)-4,4,4-trifluoro-3-(3,4,5-trichlorophenyl)but-1-en-1-yl)-2-(trifluoromethyl)benzamide]	A (80-100)	50 to 100%	50 to 100%	
CC[C@H](CS(=O)(=O)CCC(F)(F)F)NC(=O)c1ccc(/C=C/C(c2cc(Cl)c(Cl)c(Cl)c2)C(F)(F)F)cc1C(F)(F)F (stereo partly drawn) [F21, 4-((E)-4,4,4-Trifluoro-3-(3,4,5-trichlorophenyl)but-1-en-1-yl)-2-(trifluoromethyl)-N—((R)-1-((3,3,3-trifluoropropyl)sulfonyl)butan-2-yl)benzamide]	A (80-100)	50 to 100%	50 to 100%	
C[C@H](CS(=O)(=O)CC(F)(F)F)NC(=O)c1ccc(/C=C/C(c2cc(Cl)c(Cl)c(Cl)c2)C(F)(F)F)cc1C(F)(F)F (stereo partly drawn) [F24, 4-((E)-4,4,4-Trifluoro-3-(3,4,5-trichlorophenyl)but-1-en-1-yl)-N—((R)-1-((2,2,2-trifluoroethyl)sulfonyl)propan-2-yl)-2-(trifluoromethyl)benzamide]	A (80-100)	50 to 100%	50 to 100%	mortality at 0.05 µg/cm2 ([2]; Trichoplusia ni, 0.05 μg/cm^2, read-out: CL Percent control (or mortality)): 100%; mortality at 0.5 µg/cm2 ([2]; Trichoplusia ni, 0.5 μg/cm^2, read-out: CL Percent control (or mortality)): 100%; mortality at 5 µg/cm2 ([2]; Trichoplusia ni, 5 μg/cm^2, read-out: CL Percent control (or mortality)): 100%; mortality at 0.05 µg/cm2 ([3]; Spodoptera exigua, 0.05 μg/cm^2, read-out: BAW Percent control (or mortality)): 100%; mortality at 0.5 µg/cm2 ([3]; Spodoptera exigua, 0.5 μg/cm^2, read-out: BAW Percent control (or mortality)): 100%; mortality at 5 µg/cm2 ([3]; Spodoptera exigua, 5 μg/cm^2, read-out: BAW Percent control (or mortality)): 100%
CS(=O)(=O)CC[C@@H](NC(=O)c1ccc(/C=C/C(c2cc(Cl)c(Cl)c(Cl)c2)C(F)(F)F)cc1C(F)(F)F)C(=O)NCC(F)(F)F (stereo partly drawn) [F27, N—((R)-4-(Methylsulfonyl)-1-oxo-1-((2,2,2-trifluoroethyl)amino)butan-2-yl)-4-((E)-4,4,4-trifluoro-3-(3,4,5-trichlorophenyl)but-1-en-1-yl)-2-(trifluoromethyl)benzamide]	A (80-100)			CL % Control (or Mortality) rating [2, 6]: A (50-100); BAW % Control (or Mortality) rating [3, 6]: A (50-100)
CSCC[C@@H](NC(=O)c1ccc(/C=C/C(c2cc(Cl)c(Cl)c(Cl)c2)C(F)(F)F)cc1C(F)(F)F)C(=O)NCC(F)(F)F (stereo partly drawn) [F28, N—((R)-4-(Methylthio)-1-oxo-1-((2,2,2-trifluoroethyl)amino)butan-2-yl)-4-((E)-4,4,4-trifluoro-3-(3,4,5-trichlorophenyl)but-1-en-1-yl)-2-(trifluoromethyl)benzamide]	A (80-100)	50 to 100%	50 to 100%	
C[C@H](CSCC(F)(F)F)NC(=O)c1ccc(/C=C/C(c2cc(Cl)c(F)c(Cl)c2)C(F)(F)F)cc1Br (stereo partly drawn) [F34, 2-Bromo-4-((E)-3-(3,5-dichloro-4-fluorophenyl)-4,4,4-trifluorobut-1-en-1-yl)-N—((R)-1-((2,2,2-trifluoroethyl)thio)propan-2-yl)benzamide]	A (80-100)	50 to 100%	50 to 100%	
C[C@H](CS(=O)(=O)CC(F)(F)F)NC(=O)c1ccc(/C=C/C(c2cc(Cl)c(F)c(Cl)c2)C(F)(F)F)cc1C(F)(F)F (stereo partly drawn) [F36, 4-((E)-3-(3,5-Dichloro-4-fluorophenyl)-4,4,4-trifluorobut-1-en-1-yl)-N—((R)-1-((2,2,2-trifluoroethyl)sulfonyl)propan-2-yl)-2-(trifluoromethyl)benzamide]	A (80-100)	50 to 100%	50 to 100%	
C[C@H](C[S+]([O-])CC(F)(F)F)NC(=O)c1ccc(/C=C/C(c2cc(Cl)c(F)c(Cl)c2)C(F)(F)F)cc1C(F)(F)F (stereo partly drawn) [F37]	A (80-100)	50 to 100%	50 to 100%	
C[C@H](C[S+]([O-])CC(F)(F)F)NC(=O)c1ccc(/C=C/C(c2cc(Cl)c(Cl)c(Cl)c2)C(F)(F)F)cc1Br (stereo partly drawn) [F39, 2-Bromo-4-((E)-4,4,4-trifluoro-3-(3,4,5-trichlorophenyl)but-1-en-1-yl)-N-((2R)-1-((2,2,2-trifluoroethyl)sulfinyl)propan-2-yl)benzamide]	A (80-100)	50 to 100%	50 to 100%	
